Values quoted from earlier work as cited in patent US20110082200A1, “5,6,7-TRIHYDROXYHEPTANOIC ACID AND ANALOGS FOR THE TREATMENT OF OCULAR DISEASES AND DISEASES ASSOCIATED WITH HYPERPROLIFERATIVE AND ANGIOGENIC RESPONSES” (ALCON, INC., priority 2004, published 2011).

Legend:
neutrophils = conditions: compared with lipoxin A4
endothelial cell [1] = conditions: in vitro
[2] = system: VEGF-induced angiogenesis; conditions: murine chronic granulomatous air pouch model
endothelial cell [3] = conditions: in vitro; remark: listed apart in the source

Compound: COC(=O)CCC[C@H](O)[C@H](O)CO [Compound 1]
- inhibition of LTB4-induced chemotaxis of neutrophils (neutrophils): as potently as lipoxin A4

Compound: CCCCC[C@H](O)[C@H](O)CO [Compound 2]
- inhibition of LTB4-induced chemotaxis of neutrophils (neutrophils): as potently as lipoxin A4

Compound: O=C(O)CCC[C@H](O)[C@H](O)/C=C/C=C/C=C\C=C\[C@H](O)COc1ccc(F)cc1 [Lipoxin analog 3]
- inhibition of VEGF-induced endothelial cell chemotaxis and proliferation (endothelial cell [1]): inhibit
- inhibition of VEGF-induced angiogenesis [2]: inhibit
- inhibition of leukotriene D4-induced endothelial cell chemotaxis and proliferation (endothelial cell [3]): inhibit
